Laboratory results reported in ChEMBL document CHEMBL3046616, “Design, synthesis, and biological activities of milbemycin analogues” (2011).

Columns and labels:
Type in all cases: functional
Mythimna separata = test: Insecticidal activity against Mythimna separata (Oriental armyworm) fourth-instar larvae reared compound pre-treated corn leaves assessed as insect mortality at 200 mg/L measured 2 days post compound dose
Aphis fabae = test: Insecticidal activity against Aphis fabae (black bean aphid) infested soybean tender shoots measured 48 hr post compound dose by modified FAO dip method; parameters: concentration or dose not given beside the values
Tetranychus cinnabarinus = test: Insecticidal activity against Tetranychus cinnabarinus (carmine spider mite) […] assessed as larvicidal activity at 0.006 mg/L after 48 hr

SMILES | mortality at 200 µg/mL (Mythimna separata) [%] | mortality (Aphis fabae) [%] | mortality at 0.006 µg/mL (Tetranychus cinnabarinus) [%]
CCC(C)[C@H]1O[C@]2(CC[C@@H]1C)C[C@@H]1C[C@@H](C/C=C(\C)[C@@H](OC(=O)/C(=N\OC)c3ccccc3)[C@@H](C)/C=C/C=C3\CO[C@@H]4[C@H](O)C(C)=C[C@@H](C(=O)O1)[C@]34O)O2 (stereo not given in full) | 75.5 | 86.3 | 41.5
CCC(C)[C@H]1O[C@]2(CC[C@@H]1C)C[C@@H]1C[C@@H](C/C=C(\C)[C@@H](OC(=O)Nc3ccccc3)[C@@H](C)/C=C/C=C3\CO[C@@H]4[C@H](O)C(C)=C[C@@H](C(=O)O1)[C@]34O)O2 (stereo not given in full) | 100 | 96.8 | 55.2
C/C=C/C(=O)O[C@H]1[C@H](C)O[C@@H](O[C@@H]2/C(C)=C/C[C@@H]3C[C@@H](C[C@]4(CC[C@H](C)[C@@H](C(C)CC)O4)O3)OC(=O)[C@@H]3C=C(C)[C@@H](O)[C@H]4OC/C(=C\C=C\[C@@H]2C)[C@]43O)C[C@@H]1OC (stereo not given in full) | 88.9 | 100 | 25.1
CCC(C)[C@H]1O[C@]2(CC[C@@H]1C)C[C@@H]1C[C@@H](C/C=C(\C)[C@@H](OC(=O)c3ccc(OC)cc3)[C@@H](C)/C=C/C=C3\CO[C@@H]4[C@H](O)C(C)=C[C@@H](C(=O)O1)[C@]34O)O2 (stereo not given in full) | 100 | 75.2 | 34.8
CCC(C)[C@H]1O[C@]2(CC[C@@H]1C)C[C@@H]1C[C@@H](C/C=C(\C)[C@@H](O[C@H]3C[C@H](OC)[C@@H](OC(=O)Nc4ccc(Cl)cc4)[C@H](C)O3)[C@@H](C)/C=C/C=C3\CO[C@@H]4[C@H](O)C(C)=C[C@@H](C(=O)O1)[C@]34O)O2 (stereo not given in full) | 77.9 | 90.3 | 29.8
CCC(C)[C@H]1O[C@]2(CC[C@@H]1C)C[C@@H]1C[C@@H](C/C=C(\C)[C@@H](O[C@H]3C[C@H](OC)[C@@H](OC(=O)c4cc(F)c(Cl)nc4Cl)[C@H](C)O3)[C@@H](C)/C=C/C=C3\CO[C@@H]4[C@H](O)C(C)=C[C@@H](C(=O)O1)[C@]34O)O2 (stereo not given in full) | 0 | 88.2 | 16.5
CCC(C)[C@H]1O[C@]2(CC[C@@H]1C)C[C@@H]1C[C@@H](C/C=C(\C)[C@@H](OC(=O)c3ccccc3)[C@@H](C)/C=C/C=C3\CO[C@@H]4[C@H](O)C(C)=C[C@@H](C(=O)O1)[C@]34O)O2 (stereo not given in full) | 88.6 | 76.5 | 31.1
CCC(C)[C@H]1O[C@]2(CC[C@@H]1C)C[C@@H]1C[C@@H](C/C=C(\C)[C@@H](O[C@H]3C[C@H](OC)[C@@H](OC(=O)C4C(C=C(Cl)Cl)C4(C)C)[C@H](C)O3)[C@@H](C)/C=C/C=C3\CO[C@@H]4[C@H](O)C(C)=C[C@@H](C(=O)O1)[C@]34O)O2 (stereo not given in full) | 87.2 | 92.3 | 11.8
CCC(C)[C@H]1O[C@]2(CC[C@@H]1C)C[C@@H]1C[C@@H](C/C=C(\C)[C@@H](OC(=O)C3C(C=C(Br)Br)C3(C)C)[C@@H](C)/C=C/C=C3\CO[C@@H]4[C@H](O)C(C)=C[C@@H](C(=O)O1)[C@]34O)O2 (stereo not given in full) | 100 | 72.9 | 32.1
CCC(C)[C@H]1O[C@]2(CC[C@@H]1C)C[C@@H]1C[C@@H](C/C=C(\C)[C@@H](OC(=O)c3ccc(OC)cc3)[C@@H](C)/C=C/C=C3\CO[C@@H]4/C(=N/OC)C(C)=C[C@@H](C(=O)O1)[C@]34O)O2 (stereo not given in full) | 0 | 6.3 | 5.9
CCC(C)[C@H]1O[C@]2(CC[C@@H]1C)C[C@@H]1C[C@@H](C/C=C(\C)[C@@H](O[C@H]3C[C@H](OC)[C@@H](OC(=O)c4ccc(C)cc4)[C@H](C)O3)[C@@H](C)/C=C/C=C3\CO[C@@H]4[C@H](O)C(C)=C[C@@H](C(=O)O1)[C@]34O)O2 (stereo not given in full) | 89.7 | 92.5 | 4.5
CCC(C)[C@H]1O[C@]2(CC[C@@H]1C)C[C@@H]1C[C@@H](C/C=C(\C)[C@@H](O[C@H]3C[C@H](OC)[C@@H](OC(=O)C4C(C=C(Br)Br)C4(C)C)[C@H](C)O3)[C@@H](C)/C=C/C=C3\CO[C@@H]4[C@H](O)C(C)=C[C@@H](C(=O)O1)[C@]34O)O2 (stereo not given in full) | 83.3 | 100 | 13.4
CCC(C)[C@H]1O[C@]2(CC[C@@H]1C)C[C@@H]1C[C@@H](C/C=C(\C)[C@@H](OC(=O)Cc3ccccc3)[C@@H](C)/C=C/C=C3\CO[C@@H]4[C@H](O)C(C)=C[C@@H](C(=O)O1)[C@]34O)O2 (stereo not given in full) | 89.9 | 62.7 | 44.9
CCC(C)[C@H]1O[C@]2(CC[C@@H]1C)C[C@@H]1C[C@@H](C/C=C(\C)[C@@H](O[C@H]3C[C@H](OC)[C@@H](OC(=O)c4ccccc4)[C@H](C)O3)[C@@H](C)/C=C/C=C3\CO[C@@H]4/C(=N/OC)C(C)=C[C@@H](C(=O)O1)[C@]34O)O2 (stereo not given in full) | 0 | 5.9 | 8.6
CCC(C)[C@H]1O[C@]2(CC[C@@H]1C)C[C@@H]1C[C@@H](C/C=C(\C)[C@@H](OC(=O)c3ccc(C)cc3)[C@@H](C)/C=C/C=C3\CO[C@@H]4[C@H](O)C(C)=C[C@@H](C(=O)O1)[C@]34O)O2 (stereo not given in full) | 87.6 | 56.4 | 27.1
